Experimental data taken from article PMC7733455, “A novel multistage antiplasmodial inhibitor targeting Plasmodium falciparum histone deacetylase 1” (Cell Discovery, 2020).
Several values for one entry are separate records, joined by “and”; a condition that tells them apart may be missing. Equal entries are not always repeated.

Tests used:
P. falciparum Dd2 = assay: 3-day SYBR Green I GIA, multidrug-resistant strain Dd2; assay type: cell-based, Plasmodium falciparum; settings: Plasmodium falciparum, 72 h; 3-day SYBR Green I GIA, multidrug-resistant strain Dd2; read-out: Antiplasmodial activity EC50, Dd2
Procedure, shortened: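 Sorbitol-synchronized ring-stage parasites at 1% parasitemia and 2% hematocrit, cultured 72 h with compounds at 1% DMSO final. Growth read by SYBR Green I staining. EC50 from curve fitting.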

[1] = In vitro cytotoxicity analysis (CellTiter-Glo), HepG2; settings: human, HepG2 cells
Protocol: (§1) In all, 1% DMSO was used as a negative control. The inhibition of each drug was normalized to that of the DMSO control. EC50 was calculated by GraphPad Prism. Three independent assays with two technical replicates each time were conducted in this experiment.

HepG2 cells = assay: as above
Protocol: as §1

P. falciparum GB4 = assay: 3-day SYBR Green I GIA, strain GB4; assay type: cell-based; settings: Plasmodium falciparum; GB4 resistant to chloroquine; read-out: Resistant isolates EC50, GB4
Protocol: (§2) A 3-day SYBR Green I inhibition EC50 assay was performed as described previously. Briefly, highly synchronized ring-stage parasites by 5% sorbitol (1% parasitemia and 2% hematocrit) were incubated in a 96-well plate with compounds in a total volume of 200 μL. […] The parasites were cultured for 72 h before SYBR Green I staining as described above. The EC50 was calculated by GraphPad Prism. DHA was used as a positive control, and the final concentration of DMSO was 1%.

[2] = system: P. falciparum isolate 6320; assay: 3-day SYBR Green I GIA, field isolate 6320; assay type: cell-based; settings: Plasmodium falciparum; artemisinin- and piperaquine-resistant isolate; read-out: Resistant isolates EC50, 6320
Protocol: as §2

[3] = Pharmacokinetic assay in mice; assay type: in vivo, BALB/c mice; settings: 5 mg/kg i.p.
Protocol: Five female BALB/c mice (6–8 weeks, 18–19 g) per group were purchased from JH Laboratory Animal Co., Ltd. All mice were raised at controlled temperature and humidity and had free access to food and water. Compounds were dissolved in 5% DMSO and diluted with 20% aqueous 2-hydroxypropyl-β-cyclodextrin solution to a stock concentration of 0.5 mg/mL. Each mouse was i.p. injected with the compound solution at a dose of 5 mg/kg. Blood samples collected by anticoagulant (K2EDTA)-containing tubes at 0.25, 0.5, 1, 2, 4, 8, and 24 h after injection were centrifuged at 2000× g at 4 °C for 5 min to obtain plasma. LC-MS/MS analysis of samples was carried out by an ACQUITY UPLC HSS T3 1.8-μm column. The mobile phase was a mixture of phase A (0.1% formic acid in water) and phase B (0.1% formic acid in acetonitrile), which ran in gradient mode at a flow rate of 0.6 mL/min at 60 °C. Mass spectra were obtained on an API6500 triple quadrupole equipped with an ESI source. Propranolol was used as an internal standard. The plasma concentrations of the compounds were analyzed, and the pharmacokinetic parameters were calculated via WinNonlin.

3D7^HDA1-glmS = assay: Sensitivity of transgenic parasites to JX21108, 3D7^HDA1-glmS; assay type: cell-based; settings: Plasmodium falciparum, 3D7, 4 h, read-out: EC50 for 3D7^HDA1-glmS
Protocol: (§3) Highly synchronized schizont-stage parasites were prepared and treated as described above, with adjustments. […] After washing, parasites were cultured in new CM for another 68 h. Parasite growth was monitored by SYBR Green I staining, as described above. The EC50 was calculated by GraphPad Prism.

3D7^HDAC1-TY1 = assay: Sensitivity of transgenic parasites to JX21108, 3D7^HDAC1-TY1; assay type: cell-based; settings: Plasmodium falciparum, 3D7, 4 h, read-out: EC50 for 3D7^HDAC1-TY1
Protocol: as §3

hHDAC3 = target: T1, hHDAC3 (Homo sapiens, UniProt O15379); assay: Human HDAC inhibition assay, hHDAC3; assay type: biochemical; settings: performed only once; read-out: Inhibitory Activity IC50, hHDAC3
T1 construct: purchased BPS Bioscience 50003
T1 sequence (O15379 whole entry): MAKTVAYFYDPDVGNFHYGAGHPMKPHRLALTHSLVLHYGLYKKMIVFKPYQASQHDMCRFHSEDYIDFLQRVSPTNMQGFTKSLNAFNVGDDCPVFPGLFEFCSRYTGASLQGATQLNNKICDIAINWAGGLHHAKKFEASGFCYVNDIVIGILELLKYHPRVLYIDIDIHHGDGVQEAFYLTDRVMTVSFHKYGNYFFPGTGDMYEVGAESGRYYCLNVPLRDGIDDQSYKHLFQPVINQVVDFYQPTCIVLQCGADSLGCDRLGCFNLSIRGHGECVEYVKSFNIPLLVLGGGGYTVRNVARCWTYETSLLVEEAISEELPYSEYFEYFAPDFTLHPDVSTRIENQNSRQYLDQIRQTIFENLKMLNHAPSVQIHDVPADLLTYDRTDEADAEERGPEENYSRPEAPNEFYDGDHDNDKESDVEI
T1 sequence (Q9Y618 395-489 partner limits assumed): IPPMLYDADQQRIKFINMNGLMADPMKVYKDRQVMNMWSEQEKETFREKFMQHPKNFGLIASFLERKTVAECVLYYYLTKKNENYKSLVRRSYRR
Protocol: (§4) SAHA and suramin were used as positive controls. The tested compounds were dissolved into 20 mM stock in 100% DMSO. […] Ten microliters of trypsin and Ac-peptide substrate/Tris buffer solution were added to start the reaction, followed by a 1-h incubation at room temperature for HDACs 1–3 and 6. Ten microliters of Ac-peptide substrate/Tris buffer solution was added to start the reaction, followed by a 4-h incubation at room temperature and a further 2-h incubation with trypsin solution for HDAC8 and Sirt 2. […] This experiment was performed only once.

hHDAC8 = target: T2, hHDAC8 (Homo sapiens, UniProt Q9BY41); assay: Human HDAC inhibition assay, hHDAC8; assay type: biochemical; settings: performed only once; read-out: Inhibitory Activity IC50, hHDAC8
T2 construct: purchased BPS Bioscience 50008
T2 sequence (Q9BY41 whole entry): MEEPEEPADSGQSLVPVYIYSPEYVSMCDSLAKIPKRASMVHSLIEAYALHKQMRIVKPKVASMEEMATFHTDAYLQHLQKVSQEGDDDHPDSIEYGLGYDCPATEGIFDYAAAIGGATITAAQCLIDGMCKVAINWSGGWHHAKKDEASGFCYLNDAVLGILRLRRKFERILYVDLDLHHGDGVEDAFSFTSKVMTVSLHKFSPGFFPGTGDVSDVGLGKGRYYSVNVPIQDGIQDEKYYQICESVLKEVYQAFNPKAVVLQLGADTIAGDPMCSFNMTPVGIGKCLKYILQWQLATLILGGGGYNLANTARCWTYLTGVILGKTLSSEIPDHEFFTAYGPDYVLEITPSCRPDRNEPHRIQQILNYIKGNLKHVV
Protocol: as §4

P. falciparum 3D7 = assay: Stage-specific parasite inhibition assay; assay type: cell-based, Plasmodium falciparum; settings: 40 nM
Protocol: To analyze the stage-specific parasite inhibition, highly synchronized parasites were cultured in 24-well plates with a starting parasitemia of 1% at a hematocrit of 2%. After 12 h of culture with the tested compounds at a concentration of 40 nM, parasites were washed three times to remove the compounds, and parasitemia was diluted 1:40 by new RBCs into CM for another 4 days of culture. DMSO was used as a blank control. Parasitemia was counted by flow cytometry. Flow cytometry was conducted as described previously. Briefly, the parasite-infected RBCs were fixed in 4% formaldehyde/0.015% glutaraldehyde for 30 min at room temperature and incubated with 500 μL of a SYBR green staining solution (Invitrogen) (1:5000) in 1× PBS (phosphate-buffered saline, pH 7.4, without calcium and magnesium). Cells were washed three times with 1× PBS prior to flow-cytometry analysis on a MoFloAstrios EQ instrument (BECKMAN COULTER). RBCs (5 × 10^5) were measured (excitation 488 nm; emission detection FL1 513 ± 26 nm), and a value of 5 on FL1 (SYBR Green intensity) was applied as a threshold to identify (gate) the infected RBCs (iRBCs). Acquired data were processed using the FlowJo software (v.10.0.5).

[4] = female, BALB/c, mouse, plasma, ip

In the case of `Cl.Cn1cc(CN2CCC3(CCN(c4ncc(C(=O)NO)cn4)C3)C2)c2cc(C#N)ccc21` (stereo not drawn) [JX21108], the EC50 (P. falciparum Dd2) is reported as 0.004 µM, the EC50 at 72 h [1] is reported as 3.82 ± 0.145 µM and the “Selectivity index for HepG2 (EC50 HepG2/EC50 3D7)” value (HepG2 cells) is reported as ~ 1060 and 1069 and 1060. For the same compound, the EC50 (P. falciparum GB4) was 0.0024 ± 0.0006 µM, the EC50 [2] was 0.0026 ± 0.0002 µM and the V/F [3] was 15.4 L/kg. For the same compound, the AUC(0-inf) [3, 4] was 0.434 µg·h/mL, the AUC(0-t) [3, 4] was 0.432 µg·h/mL and the half-life [3, 4] was 55.6 min. For the same compound, the CL/F ([3]; female, BALB/c, mouse, plasma, ip, read-out: CL/F (converted)) was 11.5 L/h/kg, the Cmax ([3]; female, BALB/c, mouse, plasma, ip, read-out: Cmax) was 0.511 µg/mL and the Tmax ([3]; female, BALB/c, mouse, plasma, ip, read-out: Tmax) was 15 min. It also gave an EC50 (3D7^HDA1-glmS) of 0.21 ± 0.025 µM, an EC50 (3D7^HDAC1-TY1) of 0.114 ± 0.0265 µM and an IC50 (hHDAC3) of 0.019 µM. For the same compound, the IC50 (hHDAC8) was 0.062 µM, the “stage dependence of parasite killing (parasitemia at 4 dpi)” value (P. falciparum 3D7; 12-h treatment) was “treatment at the schizont stage was more active in parasite killing than that at the ring and trophozoite stages” and the “asexual development of parasites to the next cycle” value (P. falciparum 3D7; 12-h treatment at ring, trophozoite and schizont stages) was “strongly block the asexual development of parasites to the next cycle”.
